Measurements from patent US8557526B2, “Synaptotagmin and collapsin response mediator protein as biomarkers for traumatic brain injury” (University of Florida Research Foundation, Inc., priority 2007, dated 2013).

How the values were obtained:
[1] = system: rat cerebrocortical cultures; assay: Synaptotagmin-1 fragmentation and vesicle organization in neurotoxin-challenged neuronal cultures; type: cell-based; conditions: for organization of synaptotagmin-coupled vesicles: cerebrocortical neurons and cerebellar granule neurons; for fragmentation of 65 kDa synaptotagmin-1 protein (33-36 kDa N-terminal fragments): oncotic, apoptotic and excitotoxic challenge
Procedure: Cerebrocortical cells harvested from 1-day old Sprague-Dawley rat brains were plated on poly-L-lysine coated on 6-well culture plates (Erie Scientific, Portsmouth, N.H., USA) at a density of 4.36×10^5 cells/mL. Cultures were maintained in Dulbecco's modified Eagle's medium (DMEM) with 10% fetal bovine serum in a humidified incubator in an atmosphere of 10% CO2 at 37° C. After 5 days in culture, the media were changed to DMEM with 5% horse serum. Subsequent media changes were performed three times a week. Experiments were performed on days 10 to 11 in vitro when astroglia had formed a confluent monolayer beneath morphologically mature neurons.
Cerebrocortical cultures (12-day-old) from above were washed three times with serum-free MEM.
After electrotransfer, blotting membranes were blocked for 1 hour at ambient temperature in 5% non-fat milk in TBS and 0.05% […] (TBST), then incubated in primary monoclonal synaptotagmin-1 antibody (BD Cat# 610434) in TBST with 5% milk at 1/50 dilution as recommended by the manufacturer at 4° C. overnight, followed by three washes with TBST and a 2 hour incubation at ambient temperature with a secondary antibody linked to biotinylated secondary antibody (Amersham, Cat # RPN1177v1) followed by a 30 min incubation with strepavidin-conjugated alkaline phosphatase (calorimetric method). Colorimetric development was performed with a one-step BCIP NBT reagent (KPL, Cat # 50-81-08). Molecular weights of intact synaptotagmin-1 protein and their potential breakdown products (BDPs) were assessed by running along side rainbow colored molecular weight standards (Amersham, Cat # RPN800V).

primary cortical neurons [2] = assay: CRMP immunoblot after neurotoxin treatment of primary cortical neurons, with or without protease inhibitors; type: cell-based, rat; conditions: for CRMP5 after neurotoxin / intact CRMP1 and CRMP4 after neurotoxin: NMDA 200 μM 6 hours, maitotoxin 3 nM 3 hours; for integrity of intact CRMP2 / appearance of 55 kDa BDP after neurotoxin: NMDA 200 μM, MTX, STS 0.5 μM, EDTA 5 mM; for STS-mediated generation of the 55 kDa CRMP2 BDP (effect of inhibitor): STS 0.5 μM challenge, primary cortical neurons; for formation of the 55 kDa CRMP2 BDP after NMDA treatment (effect of inhibitor pretreatment): pretreatment of primary cortical culture
Procedure: Primary cortical neurons from first post-natal day Sprague-Dawley rat brains were plated on poly-L-lysine coated culture plates (Erie Scientific, Portsmouth, N.H., U.S.A.). Cells were dissociated with trypsin and DNase I, re-suspended in 10% plasma-derived horse serum (PDHS) in Dulbecco's modified Eagle's medium (DMEM), and plated on poly-L-lysine treated 35 mm (density: 3.0×10^6 cells per well) plates. Cells were allowed to grow in an atmosphere of 10% CO2 at 37° C. for three days and then treated with 1 μM 4-amino-6-hydrazino-7-β-D-ribofuranosyl-7H-pyrrolo (2,3-d)-pyrimidine-5-carboxamide (ARC) for two days. The ARC was removed and fresh 10% PDHS was added in DMEM, after which the cells were grown for an additional 10-14 days.
Protein concentrations of cell or tissue lysates were determined via Bio-Rad DC Protein Assay (Bio-Rad, Hercules, Calif.). Protein balanced samples were prepared for sodium dodecyl sulfate-polyacrylamide gel electrophoresis (SDS-PAGE) in a two-fold loading buffer containing 0.25 M Tris (pH 6.8), 0.2 M DTT, 8% SDS, 0.02% bromophenol blue, and 20% glycerol in distilled water. Samples were heated for 90 seconds at 90° C. and centrifuged for 2 minutes. Twenty micrograms (20 μg) of protein per lane were routinely resolved by SDS-PAGE on Tris-glycine gels for 2 hours at 130V. Following electrophoresis, separated proteins were laterally transferred to polyvinylidene fluoride (PVDF) membranes in a transfer buffer containing 39 mM glycine and 48 mM Tris-HCl (pH 8.3) 5% methanol at a constant voltage of 20 V for 2 hours at ambient temperature in a semi-dry transfer unit (Bio-Rad) by the semi-dry method.
Rat CRMP5 antibody (targeting to residues 369-564, Chemicon, Temecula, Calif.) was dialyzed with PBS using Slide-A-Lyzer MINI Dialysis Units, (Pierce, 3.5MWCO, 69550, Rockford, Ill.). Then CRMP5 was biotinylated by using EZ-link, sulfo-NHS-LC-LC-biotin by following the manufacture's instructions. Membranes were blotted either with anti-CRMP-1, or -4 (targeting residues 499-511, Chemicon), biotinylated-anti-CRMP5 antibodies or anti-CRMP2 (C4G) or a C-terminal anti-CRMP2 antibody raised against a synthetic peptides of residues 551-559), and developed with biotin and avidin-conjugated alkaline phosphatase (this step was skipped in CRMP5 blotting) and nitroblue tetrazolium and 5-bromo-4-chloro-3-indolyl phosphate. Quantitative evaluation of protein levels was performed via computer-assisted densitometric scanning (NIH Image J V.1.6 software).

primary cortical neurons [3] = assay: LDH release assay of NMDA induced neuronal cell injury; type: cell-based, rat; conditions: for protection against NMDA induced neuronal cell injury (LDH release): time course, protection within 6 hours
Procedure: LDH release assays were performed to determine the role of calpain and caspase inhibition on NMDA induced neuronal cell injury, and to draw a link with CRMP2 degradation. The release of LDH, normally present in the cytoplasm of neurons, into the cell culture media can be used as a measure of dying cells.

calpain = target: T1, calpain (Rattus norvegicus, UniProt Q07009); assay: In vitro calpain digestion of naïve brain lysate (CRMP2 immunoblot); type: biochemical; conditions: pretreatment of naïve lysate
T1 construct: purchased Calbiochem
T1 sequence (Q07009 20-700 limits assumed): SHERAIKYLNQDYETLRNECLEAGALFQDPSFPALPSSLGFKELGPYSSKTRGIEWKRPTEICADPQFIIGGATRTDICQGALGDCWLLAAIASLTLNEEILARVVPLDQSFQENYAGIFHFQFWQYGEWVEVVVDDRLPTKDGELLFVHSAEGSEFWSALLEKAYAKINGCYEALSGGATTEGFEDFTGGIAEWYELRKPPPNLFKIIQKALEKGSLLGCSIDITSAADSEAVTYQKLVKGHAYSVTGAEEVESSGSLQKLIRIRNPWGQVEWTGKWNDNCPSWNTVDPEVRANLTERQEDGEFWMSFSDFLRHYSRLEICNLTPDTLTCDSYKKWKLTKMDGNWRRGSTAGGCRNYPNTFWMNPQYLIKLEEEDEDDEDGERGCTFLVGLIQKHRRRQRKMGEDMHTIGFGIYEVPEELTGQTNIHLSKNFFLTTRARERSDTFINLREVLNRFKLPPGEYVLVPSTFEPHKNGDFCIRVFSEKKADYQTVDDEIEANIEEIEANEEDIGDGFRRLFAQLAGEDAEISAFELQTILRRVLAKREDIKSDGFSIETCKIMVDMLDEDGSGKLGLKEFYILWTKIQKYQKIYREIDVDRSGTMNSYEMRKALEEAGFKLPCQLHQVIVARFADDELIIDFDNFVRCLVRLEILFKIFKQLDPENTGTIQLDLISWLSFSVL
T1 sequence (Q64537 88-270 partner limits assumed): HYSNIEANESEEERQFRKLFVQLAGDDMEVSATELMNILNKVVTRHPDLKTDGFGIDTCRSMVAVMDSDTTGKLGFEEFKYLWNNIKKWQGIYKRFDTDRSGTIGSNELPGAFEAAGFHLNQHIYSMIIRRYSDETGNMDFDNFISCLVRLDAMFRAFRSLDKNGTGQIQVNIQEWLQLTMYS
Procedure: (§1) In vitro digestion of rat brain lysate (5 mg) was performed with the purified proteases human erythrocyte calpain-1, rat recombinant calpain-2 (Calbiochem, San Diego, Calif.) and recombinant human caspase-3 (Chemicon, Temecula, Calif.) in a buffer containing 100 mM Tris-HCl (pH 7.4) and 20 mM DTT. For calpain, 2 mM CaCl2 was also added, and then incubated at room temperature for 30 minutes. For caspase-3, samples were incubated at 37° C. for four hours. Protease reactions were stopped by the addition of calpain inhibitor SJA6017 to a concentration of 30 μM (Senju Pharmaceuticals, Kobe, Japan) or pan-caspase inhibitor Z-VAD to a concentration of 20 μM and a protease inhibitor cocktail solution.
(§2) This example was to determine whether CRMP2 proteolysis was calpain mediated following TBI, similar to the proteolysis found in cell culture after neurotoxin treatment. […] The complete inhibition of calpain and caspase activity was confirmed by parallel monitoring of calpain and caspase associated αII-spectrin degradation. […] Therefore, calpain produced the 55 kDa CRMP-2 BDP, while caspase-3 was ruled out.

[4] = target: T2, recombinant human caspase-3 (Homo sapiens, UniProt P42574); assay: In vitro caspase-3 digestion of naïve brain lysate (CRMP2 immunoblot); type: biochemical
T2 construct: purchased Chemicon
T2 sequence (P42574 29-175 limits assumed): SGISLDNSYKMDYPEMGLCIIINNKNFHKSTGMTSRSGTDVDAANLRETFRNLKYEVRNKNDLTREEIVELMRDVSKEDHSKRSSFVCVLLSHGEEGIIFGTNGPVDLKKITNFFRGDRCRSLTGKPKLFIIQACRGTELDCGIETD
T2 sequence (P42574 176-277 limits assumed): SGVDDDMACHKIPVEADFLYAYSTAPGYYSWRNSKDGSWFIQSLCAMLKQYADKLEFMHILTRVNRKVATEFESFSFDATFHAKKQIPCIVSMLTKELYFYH
Procedure: as §1, §2

Compound	organization of synaptotagmin-coupled vesicles [1]	fragmentation of 65 kDa synaptotagmin-1 protein (33-36 kDa N-terminal fragments) [1]	CRMP5 after neurotoxin (primary cortical neurons [2])	intact CRMP1 and CRMP4 after neurotoxin (primary cortical neurons [2])	integrity of intact CRMP2 / appearance of 55 kDa BDP after neurotoxin (primary cortical neurons [2])	protection against NMDA induced neuronal cell injury (LDH release) (primary cortical neurons [3]; NMDA treatment)	STS-mediated generation of the 55 kDa CRMP2 BDP (effect of inhibitor) (primary cortical neurons [2])	formation of the 55 kDa CRMP2 BDP after NMDA treatment (effect of inhibitor pretreatment) (primary cortical neurons [2])	also measured
C=CC[C@H](C)[C@H](C)C[C@@H](O)[C@H](O)[C@@H]1CC[C@@]2(C)O[C@@]3(C)C[C@@]4(C)O[C@H]5/C=C\C[C@H]6O[C@H]7C[C@H]8O[C@H]9C[C@@]%10(C)O[C@@](C)([C@@H]%11CC[C@H]%12O[C@@]%13(C)C[C@H]%14O[C@@]%15(C)C[C@H]%16O[C@@]%17(C)C[C@@H](O)[C@H]([C@@H]%18O[C@H]%19[C@H](O)[C@@H](O)[C@H](C[C@H](O)C[C@@H](O)[C@@H]%20O[C@H]%21[C@H](O)[C@@H](O)[C@H]([C@@H]%22O[C@@H]%23[C@H](O)[C@H]%24O[C@H]%25C[C@H]%26O[C@@H](C[C@H](O)[C@@H](O)[C@H]%27O[C@H]%28[C@H](O)[C@H]%29O[C@H]%30C[C@H]%31O[C@H]%32[C@@H](O)[C@@H](O)[C@H]([C@H](C)[C@H](O)[C@H](C)CC[C@H](OS(=O)(=O)O)[C@H](O)[C@H](C)C[C@@H](O)C(=C)/C(C)=C/CO)O[C@@H]%32[C@H](O)C[C@]%31(C)O[C@@H]%30C[C@]%29(C)O[C@@H]%28C[C@H]%27O)[C@H](OS(=O)(=O)O)[C@H](O)[C@@H]%26O[C@@H]%25C[C@@H]%24O[C@H]%23[C@H](O)[C@H]%22O)O[C@H]%21C[C@H]%20O)O[C@H]%19C[C@H]%18O)O[C@@H]%17[C@H](O)[C@]%16(C)O[C@@H]%15CC[C@]%14(C)O[C@@H]%13C[C@@H]%12O%11)[C@H](O)C[C@@H]%10O[C@]9(C)CC[C@]8(C)O[C@]7(C)C[C@@H]6O[C@@H]5C[C@@H]4O[C@@H]3C[C@@H]2O1 [MTX, maitotoxin]	extensive disorganization	fragmented by calpain into N-terminal fragments	no remarkable change	Decrease of CRMP1 and CRMP4	–	–	–	–	–
CN[C@H](CC(=O)O)C(=O)O [NMDA, N-Methyl-D-Asparate]	extensive disorganization	fragmented by calpain into N-terminal fragments	no remarkable change	Decrease of CRMP1 and CRMP4	marked reduction	–	–	–	neuron death (LDH release) (primary cortical neurons [3]; NMDA treatment, peaking at 24 hours): induced significant neuron death after a 3 hour induction; time of appearance of the 55 kDa CRMP2 BDP (primary cortical neurons [2]; NMDA 200 μM time course): ≤ 3 h
CC(C)C[C@@H](C=O)NC(=O)[C@@H](NS(=O)(=O)c1ccc(F)cc1)C(C)C [SJA6017]	–	–	–	–	–	significant protection within 6 hours	effectively blocked	prevented the formation of the 55 kDa CRMP2 BDP	formation of the 55 kDa CRMP-2 BDP by calpain in naïve brain lysate (effect of inhibitor) (calpain): blocked formation of the 55 kDa CRMP-2 BDP; protection of neurons from excitotoxic injury after 12 hours (primary cortical neurons [3]; preincubation with inhibitor, after 12 hours): did not effectively protect
CN[C@@H]1C[C@H]2O[C@@](C)([C@@H]1OC)n1c3ccccc3c3c4c(c5c6ccccc6n2c5c31)C(=O)NC4 [STS, staurosporine]	–	fragmented by calpain into N-terminal fragments	–	–	rapidly degraded to the 55 kDa BDP	–	–	–	–
Z-VAD	–	–	–	–	–	no protection	offered no protection	not	66 kDa intact CRMP2 band after caspase-3 treatment with inhibitor [4]: did completely disappear
